From ChEMBL document CHEMBL3507680, “University of Dundee, Gates Library screen for HepG2 cell viability” come the findings set out here.

The nature of this data set: Human HepG2 cell viability assay in 384 well format. In kind it is toxicity, cell-based. The arrangement: dose 125 nL, time 70.5 hour; cytotoxicity at 70.5 h: concentration not given beside the values. The conditions noted are these: HepG2 cells, read-out: Inhibition.

As to `O=C(c1ccccn1)N1CCC(c2nc(O)cc(-c3ccncc3)n2)C1` (stereo unspecified), the cytotoxicity at 70.5 h is -5.15%. On to `CC(=O)N1CCC(c2ccnc(Nc3cncnc3)n2)CC1`, for which the cytotoxicity at 70.5 h was -8.15%.

For the compound `O=C(C1CC1)N1CCc2nc(C3CCN(C(=O)C4CC4)C3)nc(O)c2C1` (stereo unspecified), the cytotoxicity at 70.5 h was -10%. For the compound `NC(=O)CN1CCCC(CCCc2ccccn2)(C(N)=O)C1` (stereo unspecified), the cytotoxicity at 70.5 h is -3%. For `O=C(Cn1ccnc1)N1C[C@@H]2CC[C@H](Oc3cccc(F)c3)[C@@H]2C1`, the cytotoxicity at 70.5 h is -6.97%. For `CS(=O)(=O)N1CCCC1c1cccc(Cc2ccccc2F)n1` (stereo unspecified), the cytotoxicity at 70.5 h is -6.97%. As to `Cc1nc(NC2CCCC2)cc(C2CCN2C(=O)c2cnn(C)c2)n1` (stereo unspecified), the cytotoxicity at 70.5 h was -3.93%.

Take `CCC(=O)N1CCC(Cc2cc(Nc3ncccn3)ncn2)CC1`: the cytotoxicity at 70.5 h was -4.23%.

On to `O=C(C1CCC1)N1CCCC(c2ccnc(Nc3cnccn3)n2)C1` (stereo unspecified), for which the cytotoxicity at 70.5 h is -7.38%. As for `CN(C)C(=O)C1CN(Cc2nccs2)CCN(S(C)(=O)=O)C1` (stereo unspecified), the cytotoxicity at 70.5 h is -4.9%. `Cc1cc(-c2cnc(NC3CCCC3)nc2-c2ccco2)on1`: the cytotoxicity at 70.5 h was -6.66%. For `Cc1cc(-c2cnc(NC3CCCC3)nc2-c2ccc(C)o2)on1`, the cytotoxicity at 70.5 h was -5.77%. Consider `CCn1cc(CN2CCc3nc(-c4ccccn4)nc(O)c3C2)cn1`, for which the cytotoxicity at 70.5 h was -10%.

As to `C=Cn1ncc(CN2CCc3nc(-c4ccncc4)nc(O)c3C2)c1C`, the cytotoxicity at 70.5 h was -4.39%. Then `Cc1cc(-c2cnc(NCc3ccc4c(c3)OCO4)nc2C(C)C)on1`, with -4.67%; and `Cc1cc(-c2cnc(NC3CC3)nc2-c2ccco2)on1`, with -12.6%. On to `COc1ccccc1CN1CCc2c(nc(-c3ccccn3)[nH]c2=O)C1`, for which the cytotoxicity at 70.5 h was determined as 12.7%. Take `O=C(O)C1(Cc2cccc(-c3ccc(F)cc3)c2)CCOCC1`: the cytotoxicity at 70.5 h was found to be 9.21%. `Cc1ncncc1C(=O)N1CCC(O)(CN(C)Cc2ccc(F)cc2)C1` (stereo unspecified): the cytotoxicity at 70.5 h was -5.31%. Then `CC(=O)NC(=O)C1(CCCc2ccncc2)CCN1` (stereo unspecified), with -2.25%; and `NC(=O)C1(c2cnccn2)CCCN1Cc1ccc(F)c(F)c1` (stereo unspecified), with 7.58%; and `CC(=O)N1CCCC1c1cncc(Oc2ccc(F)cc2)n1` (stereo unspecified), with -3.89%. Take `Cc1ccc(C(=O)N2CCOC(c3nc(-c4ncccn4)no3)C2)cc1` (stereo unspecified): the cytotoxicity at 70.5 h is -2.85%.

`Cc1noc2nc(C3CCCN(Cc4ccncc4)C3)cc(C(F)F)c12` (stereo unspecified): the cytotoxicity at 70.5 h is -3.5%. Take `O=C(NCC1CC1)Nc1cnc2ccc(F)cc2c1O`: the cytotoxicity at 70.5 h was -3.07%.

As for `O=C(NCCO)Nc1cnc2cc(Cl)ccc2c1O`, the cytotoxicity at 70.5 h was -5.27%. In the case of `COCCC(=O)N1CCCC(c2nc(O)cc(-c3ccncc3)n2)C1` (stereo unspecified) it was 18%; in that of `CC(C)(C)C(=O)N1CCC(c2nc(O)cc(-c3ccncc3)n2)CC1`, -1.05%. For the compound `CCn1cc(CN2CCC(O)(Cn3ccc4ncccc43)CC2)cn1`, the cytotoxicity at 70.5 h is -0.72%. In the case of `OC1(Cn2ccc3ncccc32)CCN(Cc2cc(F)cc(F)c2)CC1`, the cytotoxicity at 70.5 h stood at 5.69%.

`c1cnc2[nH]c(C3CCNCC3)c(CN3CCOCC3)c2c1`: the cytotoxicity at 70.5 h was -1.47%. In the case of `CCC(CC)C(=O)NC1CCCc2nc(N3CCOCC3)ncc21` (stereo unspecified) it was -4.12%; in that of `Cc1ccc(=O)n(CC2(O)CCN(Cc3cccs3)CC2)n1`, -8.17%. With `CCn1cc(CN2CCC(O)(Cn3nc(C)ccc3=O)CC2)cn1`, the cytotoxicity at 70.5 h is -4.18%.

Consider `O=C(NC1CC1)C1(Cc2cc(-c3ccc(F)cc3F)no2)CCOCC1`, for which the cytotoxicity at 70.5 h was determined as 0.221%.

On to `Cc1ncsc1C(=O)N1CCCC(c2cc(C(F)F)n3ncnc3n2)C1` (stereo unspecified), for which the cytotoxicity at 70.5 h stood at 0.833%. With `c1cnc2[nH]c(C3CCCC3)c(CN3CCCCC3)c2c1`, the cytotoxicity at 70.5 h is -7.43%. For `CSc1ccc(CN2C[C@@H]3CC[C@@](O)(c4ccc(C)cn4)[C@@H]3C2)cc1`, the cytotoxicity at 70.5 h amounted to 41.8%. For `Cc1ccc([C@]2(O)CC[C@H]3CN(Cc4ccc(Cl)cc4Cl)C[C@H]32)nc1`, the cytotoxicity at 70.5 h was determined as 27.6%. Take `CCN1CCN(Cc2c(C3CCCC3)[nH]c3ncccc23)CC1`: the cytotoxicity at 70.5 h was -6.15%.

As for `CC(=O)NC1CCN(C(=O)Nc2cccc(SC(F)F)c2)CC1`, the cytotoxicity at 70.5 h was -0.185%.

For `CC(NC(=O)CCN1CCOC1=O)(c1ccccc1)c1ccccc1`, the cytotoxicity at 70.5 h came to 0.0243%. On to `CC1CCCCN1C(=O)CCn1cnc2sccc2c1=O` (stereo unspecified), for which the cytotoxicity at 70.5 h was -5.84%. In the case of `CCC(C)(NC(=O)CCN1CCOC1=O)C(=O)OC` (stereo unspecified) it was 20.8%. In the case of `O=C(c1cnc(NCc2cccnc2)c(Cl)c1)N1CCCCC1` it was -12.2%. `CC(C)(C)C(N)c1nc(-c2nnc[nH]2)no1` (stereo unspecified): the cytotoxicity at 70.5 h was -2.07%. In the case of `Cc1ccc(C)c(Oc2ccc(CNC(=O)C3CCC(=O)N3)cn2)c1` (stereo unspecified) it was -4.69%; in that of `O=C(Nc1ccc(-c2csnn2)cc1)N1CCN2CCCCC2C1` (stereo unspecified), 5.22%. For the compound `CCOc1ccc(NC(=O)NC2CCc3[nH]ncc3C2)cn1` (stereo unspecified), the cytotoxicity at 70.5 h was -2.96%. `CCSc1ccc(NC(=O)NC2CCc3[nH]ncc3C2)cn1` (stereo unspecified): the cytotoxicity at 70.5 h is -4.32%.

As to `Cc1ccc2c(c1)N(C(=O)c1nccnc1N)CC(C)O2` (stereo unspecified), the cytotoxicity at 70.5 h is -3.11%. Consider `O=C(NCC1CCCN1CCc1ccccc1)NCC1(O)CCC1` (stereo unspecified), for which the cytotoxicity at 70.5 h is -9.32%. Then `Cc1noc(C)c1CN(C)C(=O)C1CCCN1S(N)(=O)=O` (stereo unspecified), with 17.7%; and `CC(C)OCCS(=O)(=O)NC1CCN(C2CCCC2)C1` (stereo unspecified), with 8.61%. In the case of `O=C(C1CCCOC1)N(CC(F)F)c1cccc(Cl)c1` (stereo unspecified) it was 2.67%. Then `CCC(NC(=O)Cn1ccc(=O)n(C)c1=O)c1ccc(OC)cc1` (stereo unspecified), with -9.09%; and `CCC(NC(=O)Cn1ccc(=O)n(C)c1=O)c1ccccc1OC` (stereo unspecified), with -7%. `NC(=O)C(NC(=O)CCc1ccc(Cl)s1)c1ccccc1` (stereo unspecified): the cytotoxicity at 70.5 h is -7.77%. As for `O=S1(=O)CCC(c2nnc(-c3cnc4onc(C5CC5)c4c3)o2)C1` (stereo unspecified), the cytotoxicity at 70.5 h was -2.78%. For the compound `c1nc2onc(C3CC3)c2cc1-c1nnc(C2CC2)o1`, the cytotoxicity at 70.5 h stood at 1.7%. Regarding `COc1ccc(CNc2cc(-c3nc(C)no3)ccn2)c(OC)c1`, the cytotoxicity at 70.5 h is -1.3%. Then `Cc1nn(C)c(C)c1OCC(=O)N1CCCc2c(F)ccc(F)c21`, with 18.1%; and `CS(=O)(=O)CCC(=O)N1CCC(c2ccc(F)c(F)c2)CC1`, with 2.26%. On to `CC1CCC(N2CCC(NS(=O)(=O)CCOC(C)C)CC2)CC1` (stereo unspecified), for which the cytotoxicity at 70.5 h was found to be 14.8%. Take `CCC1COCCN1C(=O)CNC(=O)c1ccoc1C` (stereo unspecified): the cytotoxicity at 70.5 h is -5.54%.

As to `Cc1noc(C)c1CN(C)C(=O)C1CCCCN1CC(C)C` (stereo unspecified), the cytotoxicity at 70.5 h stood at 5.24%. Regarding `COCCCN(C)c1nc(-c2ccncc2)nc(C)c1C`, the cytotoxicity at 70.5 h was -5.34%. For the compound `Cc1cccc2nc(CN3CCCC(C)C3)cc(=O)n12` (stereo unspecified), the cytotoxicity at 70.5 h turned out to be 13.9%. Then `Cc1noc(C)c1Cc1nc(C2CC2)no1`, with -2.18%; and `CC1COc2ccccc2N1C(=O)CCc1cscn1` (stereo unspecified), with 3.54%; and `CC(C)N(CC(=O)Nc1ccc(Br)cc1Cl)Cc1cccnc1`, with 38.4%.

On to `CCc1noc(CNc2cc3c(cc2Cl)OCCCO3)n1`, for which the cytotoxicity at 70.5 h was -11%. On to `Cc1ccc(C2CCCN2Cc2nc(-c3ccco3)no2)cc1` (stereo unspecified), for which the cytotoxicity at 70.5 h is -1.81%. As for `Cc1cccc(C(=O)N(C)CC(=O)N2CCCC2)c1C`, the cytotoxicity at 70.5 h was -14.8%. In the case of `CC(C)C(=O)NCc1cc(Br)ccc1F`, the cytotoxicity at 70.5 h was -9.54%. As to `Cc1cc(C2CCCN2Cc2cc(-c3ccco3)on2)on1` (stereo unspecified), the cytotoxicity at 70.5 h is -14.5%. As for `Cc1cc(C2CCCN2Cc2nc(-c3ccco3)no2)on1` (stereo unspecified), the cytotoxicity at 70.5 h is -0.568%.

As to `Cc1cc(C2CCCN2Cc2nnc(-c3ccco3)o2)on1` (stereo unspecified), the cytotoxicity at 70.5 h is -8.06%.

Consider `Cc1noc(C)c1CS(=O)(=O)Cc1nc(C2CC2)no1`, for which the cytotoxicity at 70.5 h is -0.106%. Take `CC(C)CNC(=O)c1ccc(NC(=O)NC(C)c2ccccn2)cc1` (stereo unspecified): the cytotoxicity at 70.5 h is -5.93%. With `CCCNC(=O)c1ccc(NC(=O)NC(C)c2ccccn2)cc1` (stereo unspecified), the cytotoxicity at 70.5 h was -8.01%. With `COc1ccc(CNCCC(=O)N2CCc3sccc3C2)cc1O`, the cytotoxicity at 70.5 h was 5.44%.

`CC(NC(N)=O)C(=O)NCc1ccc(Br)c(F)c1` (stereo unspecified): the cytotoxicity at 70.5 h was 0.261%. Then `CC1COc2ccccc2N1C(=O)c1cscn1` (stereo unspecified), with -9.82%. On to `O=S(=O)(NCCCn1ccc2ccccc21)N1CCCCC1`, for which the cytotoxicity at 70.5 h turned out to be 16.7%. As to `O=c1oc(-c2ccc(F)cc2)nn1CC1CCOC1` (stereo unspecified), the cytotoxicity at 70.5 h worked out at 16.4%. Then `Cc1c(Cl)cccc1NC(=O)CN(Cc1cccnc1)C(C)C`, with 1.97%; and `Cc1nc(NS(=O)(=O)c2cc(Br)ccc2C)no1`, with -11.8%; and `Cc1nc(NS(=O)(=O)c2cc(C)c(Br)cc2C)no1`, with -14.1%. Turning to `Cc1nc(CC(=O)N2c3ccccc3OCC2C)cs1` (stereo unspecified), the cytotoxicity at 70.5 h is -9.24%. Regarding `COc1ccc(CN(C(=O)C2CCCOC2)c2ccncc2)cc1` (stereo unspecified), the cytotoxicity at 70.5 h was -3.58%. For the compound `O=C(NCCn1nc(C2CCNC2)c2cccnc21)c1ccccc1` (stereo unspecified), the cytotoxicity at 70.5 h was -4.57%. Regarding `O=C(NCCn1nc(C2CCNC2)c2cccnc21)c1ccccn1` (stereo unspecified), the cytotoxicity at 70.5 h is -2.16%. Turning to `CN(C)CCn1c([C@@H]2CCCO2)cc2cccnc21`, the cytotoxicity at 70.5 h came to 2.42%. Turning to `c1cnc2c(c1)cc([C@H]1CCCO1)n2CCN1CCCC1`, the cytotoxicity at 70.5 h is -1.04%. Then `Cc1ccc2c(c1)CN(C(=O)c1cccnc1)C(CN(C)C)CO2` (stereo unspecified), with 3.4%. For `Cc1ccc2c(c1)CN(C(=O)c1cnc(C)cn1)C(CN(C)C)CO2` (stereo unspecified), the cytotoxicity at 70.5 h stood at 14.1%.

`CNC(=O)CCc1cc(C2CCNCC2)nc(C)n1`: the cytotoxicity at 70.5 h was -5.9%. As to `COc1ccc(CN(Cc2cnc(N)nc2)CC2CCCO2)c(OC)c1` (stereo unspecified), the cytotoxicity at 70.5 h was -2.54%. For `Cc1ccc(CN(Cc2[nH]cnc2C)C2CC(C)(C)NC(C)(C)C2)o1`, the cytotoxicity at 70.5 h is 17.5%. In the case of `Cc1ccc(CN(Cc2ccncc2)C2CC(C)(C)NC(C)(C)C2)o1`, the cytotoxicity at 70.5 h is -2.36%.
